In ChEMBL document CHEMBL1151474, “Replication of Colonic Crohn's Disease Mucosal Escherichia coli Isolates within Macrophages and Their Susceptibility to Antibiotics” (Antimicrob Agents Chemother, 2008):
≈ marks a conversion by molar mass, not a printed value. Calls of active or inactive are those of the source. The rule behind the calls is not given here.

Columns and labels:
Escherichia coli [1] = assay: Antibacterial activity against Escherichia coli isolate HM154 isolated from colonic mucosal biopsies of patient with Crohn's disease after 24 hrs by Etest antibiotic concentration gradient method; assay type: functional; settings: isolate HM154, 24 h
Escherichia coli [2] = assay: Antibacterial activity against Escherichia coli isolate HM605 isolated from colonic mucosal biopsies of patient with Crohn's disease
Escherichia coli [3] = assay: Antibacterial activity against mucosa-associated Escherichia coli isolate HM463 isolated from patient with irritable bowel syndrome or sporadic polyps after 24 hrs by Etest antibiotic concentration gradient method; settings: isolate HM463, 24 h
Escherichia coli [4] = assay: Antibacterial activity against mucosa-associated Escherichia coli isolate HM484 isolated from patient with irritable bowel syndrome or sporadic polyps after 24 hrs by Etest antibiotic concentration gradient method; settings: isolate HM484, 24 h
Escherichia coli [5] = assay: Antibacterial activity against gentamicin-treated internalized Escherichia coli isolate HM615 in mouse J774A1 cells isolated from colonic mucosal biopsies of patient with Crohn's disease assessed as intracellular killing of bacteria at 10% compound Cmax after 3 hrs; assay type: functional, J774.A1
Escherichia coli [6] = assay: Antibacterial activity against Escherichia coli isolate HM95 isolated from ileal mucosal biopsies of patient with Crohn's disease after 24 hrs by Etest antibiotic concentration gradient method; assay type: functional; settings: isolate HM95, 24 h
J774.A1 = assay: Cytotoxicity against mouse J774A1 cells assessed as release of adenylate kinase at 100 ug/ml after 3 hrs […] relative to control; assay type: cell-based; settings: j774.a1, 3 h
Escherichia coli [7] = assay: Antibacterial activity against mucosa-associated Escherichia coli isolate HM428 isolated from patient with irritable bowel syndrome or sporadic polyps after 24 hrs by Etest antibiotic concentration gradient method; assay type: functional; settings: isolate HM428, 24 h
Escherichia coli [8] = assay: Antibacterial activity against Escherichia coli isolate HM615 isolated from colonic mucosal biopsies of patient with Crohn's disease after 24 hrs by Etest antibiotic concentration gradient method; assay type: functional; settings: isolate HM615, 24 h
Escherichia coli [9] = assay: Antibacterial activity against mucosa-associated Escherichia coli isolate HM456 isolated from patient with irritable bowel syndrome or sporadic polyps after 24 hrs by Etest antibiotic concentration gradient method; assay type: functional; settings: isolate HM456, 24 h
Escherichia coli [10] = assay: Antibacterial activity against extracellular Escherichia coli isolate HM605 isolated from colonic mucosal biopsies of patient with Crohn's disease at 0.01 to 10 ug/ml after 3 hrs; assay type: functional, organism-based
Escherichia coli [11] = assay: Antibacterial activity against Escherichia coli isolate LF82 isolated from colonic mucosal biopsies of patient with Crohn's disease after 24 hrs by Etest antibiotic concentration gradient method; settings: isolate LF82, 24 h
Escherichia coli [12] = assay: Antibacterial activity Escherichia coli isolate HM413 isolated from ileo-colonic mucosal biopsies of patient with Crohn's disease after 24 hrs by Etest antibiotic concentration gradient method; assay type: functional; settings: isolate HM413, 24 h
Escherichia coli [13] = assay: Antibacterial activity against gentamicin-treated internalized Escherichia coli isolate LF82 in mouse J774A1 cells isolated from chronic ileal lesions of patient with Crohn's disease assessed as intracellular killing of bacteria at 10% compound Cmax after 3 hrs; assay type: functional, J774.A1
Escherichia coli [14] = assay: Antibacterial activity Escherichia coli isolate HM419 isolated from ileo-colonic mucosal biopsies of patient with Crohn's disease after 24 hrs by Etest antibiotic concentration gradient method; assay type: functional; settings: isolate HM419, 24 h
Escherichia coli [15] = assay: Antibacterial activity against gentamicin-treated internalized Escherichia coli isolate HM605 in mouse J774A1 cells isolated from colonic mucosal biopsies of patient with Crohn's disease assessed as intracellular killing of bacteria at 10% compound Cmax after 3 hrs; assay type: functional, J774.A1
Escherichia coli [16] = assay: Antibacterial activity against mucosa-associated Escherichia coli isolate HM454 isolated from patient with irritable bowel syndrome or sporadic polyps after 24 hrs by Etest antibiotic concentration gradient method; assay type: functional; settings: isolate HM454, 24 h
Escherichia coli [17] = assay: Antibacterial activity against Escherichia coli isolate HM580 isolated from colonic mucosal biopsies of patient with Crohn's disease after 24 hrs by Etest antibiotic concentration gradient method; assay type: functional; settings: isolate HM580, 24 h
Escherichia coli [18] = assay: Antibacterial activity against mucosa-associated Escherichia coli isolate HM488 isolated from patient with irritable bowel syndrome or sporadic polyps after 24 hrs by Etest antibiotic concentration gradient method; settings: isolate HM488, 24 h
Escherichia coli [19] = assay: Antibacterial activity against gentamicin-treated internalized Escherichia coli isolate HM580 in mouse J774A1 cells isolated from colonic mucosal biopsies of patient with Crohn's disease assessed as intracellular killing of bacteria at 10% compound Cmax after 3 hrs; assay type: functional, J774.A1

O=C(O)c1cn(C2CC2)c2cc(N3CCNCC3)c(F)cc2c1=O [CIPROFLOXACIN]
MIC (Escherichia coli [1]): ≤ 1 µg/mL
MBC (Escherichia coli [2]): 0.3 µg/mL (≈ 0.905 µM)
MIC (Escherichia coli [3]): ≤ 1 µg/mL
MIC (Escherichia coli [4]): ≤ 1 µg/mL
Activity (Escherichia coli [5]): 83.8%
MIC (Escherichia coli [6]): ≤ 1 µg/mL
Activity (J774.A1): 90%
MIC (Escherichia coli [7]): ≤ 1 µg/mL
MIC (Escherichia coli [8]): ≤ 1 µg/mL
MIC (Escherichia coli [9]): ≤ 1 µg/mL
Activity (Escherichia coli [10]): Active
MIC (Escherichia coli [11]): ≤ 1 µg/mL
MIC (Escherichia coli [12]): ≤ 1 µg/mL
Activity (Escherichia coli [13]): 87.6%
MIC (Escherichia coli [14]): ≤ 1 µg/mL
Activity (Escherichia coli [15]): 86%
MIC (Escherichia coli [16]): ≤ 1 µg/mL
MIC (Escherichia coli [17]): ≤ 1 µg/mL
MIC (Escherichia coli [18]): ≤ 1 µg/mL
Activity (Escherichia coli [19]): 90.4%
